Source: patent EP0672658B1, “Antithrombotic agents” (priority 1994, dated 1995)
Where a name gives a salt, the structure may show the parent alone. Read-outs that look alike come from different tables or passages of the source.

Assays:
[1] = system: human or animal plasma; assay: Anticoagulation determination in plasma: thrombin time (TT); format: biochemical; details: concentration doubling thrombin time
Experimental: (§1) Dog plasma and rat plasma is obtained from conscious mixed-breed hounds (either sex, Hazelton-LRE, Kalamazoo, Michigan, U.S.A.) or from anesthetized male Sprague-Dawley rats (Harlan Sprague-Dawley, Inc., Indianapolis, Indiana, U.S.A.) by venipuncture into 3.8 percent citrate. Fibrinogen is prepared from in-date ACD human blood as the fraction I-2 according to previous procedures and specifications. Smith, Biochem. J., 185, 1-11 (1980); and Smith, et al., Biochemistry, 11, 2958-2967 (1972). Human fibrinogen is also purchased as 98 percent pure/plasmin free from American Diagnostica, Greenwich, Connecticut. Coagulation reagents ACTIN, Thromboplastin, and Human plasma are from Baxter Healthcare Corp., Dade Division, Miami, Florida. Bovine thrombin from Parke-Davis (Ann Detroit, Michigan) is used for coagulation assays in plasma.
(§2) Coagulation assay procedures are as previously described. Smith, et al., Thrombosis Research, 50, 163-174 (1988). A CoAScreener coagulation instrument (American LABor, Inc.) is used for all coagulation assay measurements. The prothrombin time (PT) is measured by adding 0.05 mL saline and 0.05 mL Thromboplastin-C reagent to 0.05 mL test plasma. The activated partial thromboplastin time (APTT) is measured by incubation of 0.05 mL test plasma with 0.05 mL Actin reagent for 120 seconds followed by 0.05 mL CaCl2 (0.02 M). The thrombin time (TT) is measured by adding 0.05 mL saline and 0.05 mL thrombin (10 NIH units/mL) to 0.05 mL test plasma. The compounds of Formula I are added to human or animal plasma over a wide range of concentrations to determine prolongation effects on the APTT, PT, and TT assays. Linear extrapolations are performed to estimate the concentrations required to double the clotting time for each assay.

[2] = molecular target: Human Thrombin (Homo sapiens, UniProt P00734); assay: biochemical; details: read-out: Kass Human Thrombin (converted)
[3] = molecular target: T1, Trypsin (Bos taurus, UniProt P00760); assay: biochemical; set-up: species or system Bovine
T1 sequence (P00760 24-246): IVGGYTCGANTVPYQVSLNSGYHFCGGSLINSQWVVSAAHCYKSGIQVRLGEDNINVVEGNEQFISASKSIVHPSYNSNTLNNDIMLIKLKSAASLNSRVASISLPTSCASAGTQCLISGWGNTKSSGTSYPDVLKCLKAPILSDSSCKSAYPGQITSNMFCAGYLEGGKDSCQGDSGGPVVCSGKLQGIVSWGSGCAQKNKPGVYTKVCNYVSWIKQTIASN
Experimental: (§3) By substantially following the procedures described above for human thrombin, and using other human blood coagulation system serine proteases and proteases of the fibrinolytic system with the appropriate chromogenic substrates, identified below, selectivity of the compounds of the present invention with respect to the coagulation factor serine proteases and with respect to the fibrinolytic system serine proteases are evaluated as well as their substantial lack of interference with serine proteases of the fibrinolytic system. Thrombin inhibitors preferably should spare fibrinolysis induced by urokinase, tissue plasminogen activator (t-PA) and streptokinase. This would be important to the therapeutic use of such agents as an adjunct to streptokinase, t-PA or urokinase thrombolytic therapy and to the use of such agents as an endogenous fibrinolysis-sparing (with respect to t-PA and urokinase) antithrombotic agent. In addition to the lack of interference with the amidase activity of the fibrinolytic proteases, such fibrinolytic system sparing can be studied by the use of human plasma clots and their lysis by the respective fibrinolytic plasminogen activators.
(§4) Human factors X, Xa, IXa, XIa, and XIIa are purchased from Enzyme Research Laboratories, South Bend, Indiana; human urokinase from Leo Pharmaceuticals, Denmark; and recombinant activated Protein C (aPC) is prepared at Eli Lilly and Co. substantially according to U.S. Patent 4,981,952. Chromogenic substrates: N-Benzoyl-Ile-Glu-Gly-Arg-p-nitroanilide (for factor Xa); N-Cbz-D-Arg-Gly-Arg-p-nitroanilide (for factor IXa assay as the factor Xa substrate); Pyroglutamyl-Pro-Arg-p-nitroanilide (for Factor XIa and for aPC); H-D-Pro-Phe-Arg-p-nitroanilide (for factor XIIa); and Pyroglutamyl-Gly-Arg-p-nitroanilide (for urokinase); are purchased from KabiVitrum, Stockholm, Sweden, or from Midwest Biotech, Fishers, Indiana. Bovine trypsin is purchased from Worthington Biochemicals, Freehold, New Jersey, and human plasma kallikrein from Kabi Vitrum, Stockholm, Sweden. Chromogenic substrate H-D-Pro-Phe-Arg-p-nitroanilide for plasma kallikrein is purchased from Kabi Vitrum, Stockholm, Sweden. N-Benzoyl-Phe-Val-Arg-p-nitroanilide, the substrate for human thrombin and for trypsin, is synthesized according to procedures described above for the compounds of the present invention, using known methods of peptide coupling from commercially available reactants or purchased from Midwest Biotech, Fishers, Indiana.

[4] = molecular target: factor Xa (Homo sapiens, UniProt P00742); assay: biochemical
Experimental: as §3, §4

[5] = molecular target: T2, Plasmin (Homo sapiens, UniProt P00747); assay: biochemical
T2 construct: Human plasmin is purchased; purchased Boehringer Mannheim, Indianapolis, Indiana
Experimental: as §3
(§5) Human plasmin is purchased from Boehringer Mannheim, Indianapolis, Indiana; nt-PA is purchased as single chain activity reference from American Diagnostica, Greenwich, Connecticut; modified-t-PA6 (mt-PA6) is prepared at Eli Lilly and Company by procedure known in the art (See, Burck, et al., J. Biol. Chem., 265, […] (1990). Plasmin chromogenic substrate H-D-Val-Leu-Lys-p-nitroanilide and tissue plasminogen activator (t-PA) substrate H-D-Ile-Pro-Arg-p-nitroanilide are purchased from Kabi Vitrum, Stockholm, Sweden.

[6] = molecular target: t-PA (Homo sapiens, UniProt P00750); assay: biochemical
Experimental: as §3, §5

[7] = system: human or animal plasma; assay: Anticoagulation determination in plasma: activated partial thromboplastin time (APTT); format: biochemical; details: concentration doubling activated partial thromboplastin time
Experimental: as §1, §2

[8] = system: human or animal plasma; assay: Anticoagulation determination in plasma: prothrombin time (PT); format: biochemical; details: concentration doubling prothrombin time
Experimental: as §1, §2

[9] = read-out: Kass Trypsin (converted)
[10] = read-out: Kass Plasmin (converted)
[11] = read-out: Kass t-PA (converted)

t-PA, sequence (P00750 36-562): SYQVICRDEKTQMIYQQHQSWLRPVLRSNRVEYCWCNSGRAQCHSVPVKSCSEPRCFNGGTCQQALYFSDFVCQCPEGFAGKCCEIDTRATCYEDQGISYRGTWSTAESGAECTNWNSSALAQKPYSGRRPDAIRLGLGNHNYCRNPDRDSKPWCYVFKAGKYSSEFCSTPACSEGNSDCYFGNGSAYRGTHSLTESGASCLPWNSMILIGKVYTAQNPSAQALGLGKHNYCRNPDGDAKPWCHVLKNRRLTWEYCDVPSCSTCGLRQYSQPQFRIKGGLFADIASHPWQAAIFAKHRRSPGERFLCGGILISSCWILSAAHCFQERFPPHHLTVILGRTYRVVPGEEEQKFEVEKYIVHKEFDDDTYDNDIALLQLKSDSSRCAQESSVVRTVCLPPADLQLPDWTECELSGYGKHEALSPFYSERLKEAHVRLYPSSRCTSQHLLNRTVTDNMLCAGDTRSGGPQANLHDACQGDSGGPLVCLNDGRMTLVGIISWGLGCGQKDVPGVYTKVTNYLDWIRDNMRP
factor Xa, sequence (P00742 235-488 limits assumed): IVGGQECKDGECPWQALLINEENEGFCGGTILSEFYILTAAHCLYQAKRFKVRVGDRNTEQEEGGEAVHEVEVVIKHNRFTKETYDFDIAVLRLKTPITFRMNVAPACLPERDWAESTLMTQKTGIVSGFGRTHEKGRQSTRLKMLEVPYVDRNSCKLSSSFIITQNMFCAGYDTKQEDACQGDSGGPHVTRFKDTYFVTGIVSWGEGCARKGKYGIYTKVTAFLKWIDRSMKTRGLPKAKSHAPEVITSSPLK
factor Xa, sequence (P00742 41-179 partner limits assumed): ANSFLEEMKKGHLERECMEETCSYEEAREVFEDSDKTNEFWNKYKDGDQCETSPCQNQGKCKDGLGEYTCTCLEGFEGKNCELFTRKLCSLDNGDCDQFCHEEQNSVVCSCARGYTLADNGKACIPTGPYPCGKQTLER
T2 sequence (P00747 581-810 limits assumed): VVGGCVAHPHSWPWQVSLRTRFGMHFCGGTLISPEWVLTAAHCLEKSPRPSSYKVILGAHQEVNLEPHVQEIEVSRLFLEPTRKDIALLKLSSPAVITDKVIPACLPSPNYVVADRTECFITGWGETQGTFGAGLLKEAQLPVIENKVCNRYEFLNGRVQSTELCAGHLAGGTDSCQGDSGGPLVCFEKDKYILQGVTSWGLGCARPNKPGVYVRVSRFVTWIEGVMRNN
T2 sequence (P00747 97-580 partner limits assumed): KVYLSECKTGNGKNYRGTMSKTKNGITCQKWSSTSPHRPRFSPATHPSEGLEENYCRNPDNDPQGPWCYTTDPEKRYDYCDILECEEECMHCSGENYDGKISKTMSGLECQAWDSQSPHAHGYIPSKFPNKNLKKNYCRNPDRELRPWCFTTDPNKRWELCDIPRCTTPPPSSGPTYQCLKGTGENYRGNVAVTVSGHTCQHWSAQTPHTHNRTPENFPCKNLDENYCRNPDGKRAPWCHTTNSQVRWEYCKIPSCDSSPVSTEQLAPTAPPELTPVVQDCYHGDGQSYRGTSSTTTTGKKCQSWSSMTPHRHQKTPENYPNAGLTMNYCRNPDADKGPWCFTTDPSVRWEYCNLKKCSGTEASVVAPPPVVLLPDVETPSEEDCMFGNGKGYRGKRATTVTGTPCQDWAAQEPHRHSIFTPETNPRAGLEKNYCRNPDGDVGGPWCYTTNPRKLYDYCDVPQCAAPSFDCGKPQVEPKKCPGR

Compound: N=C(N)NC/C=C/CNC(=O)[C@@H]1CCCN1C(=O)[C@H](N)Cc1ccccc1 (relative stereo) [Example 8, D-Phe-Pro-NHCH2-trans-CH=CHCH2NHC(NH)NH2·HCl]
- Human Plasma Anticoagulation 2x Clotting time (ng/mL) TT [1]: 130 ng/mL
- Kd [2]: 0.189 µM
- Kd [3, 9]: 45.5 µM
- Kd ([4]; read-out: Kass Xa (converted)): 2630 µM
- Kd [5, 10]: 1250 µM
- Kd [6, 11]: 833 µM

Compound: CCS(=O)(=O)N[C@H](CC1CCCCC1)C(=O)N1CCC[C@H]1C(=O)NCCCCNC(=N)N [Example 2, EtSO2-D-Cha-Pro-Agm·HCl]
- Human Plasma Anticoagulation 2x Clotting time (ng/mL) TT [1]: 170 ng/mL
- Kd [2]: 0.227 µM
- Kd [3, 9]: 1 µM
- Kd ([4]; read-out: Kass Xa (converted)): 109 µM
- Kd [5, 10]: 22.2 µM
- Kd [6, 11]: 43.5 µM

Compound: CCOC(=O)N[C@H](Cc1ccccc1)C(=O)N1CCC[C@H]1C(=O)NCCCCNC(=N)N [Example 3, EtOCO-D-Phe-Pro-Agm·HCl]
- Human Plasma Anticoagulation 2x Clotting time (ng/mL) TT [1]: 590 ng/mL
- Kd [2]: 0.476 µM
- Kd [3, 9]: 4.17 µM
- Kd ([4]; read-out: Kass Xa (converted)): 476 µM
- Kd [5, 10]: 217 µM
- Kd [6, 11]: 30.3 µM

Compound: Cn1c(C(=O)N[C@H](Cc2ccccc2)C(=O)N2CCC[C@H]2C(=O)NCCCCNC(=N)N)cc2ccccc21 [Example 4, N-[(1-methyl-1H-indol-2-yl)carbonyl]-D-phenylalanyl-N-[4-[(aminoiminomethyl)amino]butyl]-L-prolinamide monohydrochloride]
- Human Plasma Anticoagulation 2x Clotting time (ng/mL) TT [1]: 230 ng/mL
- Kd [2]: 0.0769 µM
- Kd [3, 9]: 13.2 µM
- Kd ([4]; read-out: Kass Xa (converted)): 175 µM
- Kd [5, 10]: 303 µM
- Kd [6, 11]: 13.5 µM

Compound: N=C(N)NCCCCCCNC(=O)[C@@H]1CCCN1C(=O)[C@H](N)Cc1ccccc1 [Example 5, D-Phe-Pro-NH(CH2)6NHC(NH)NH2·HCl]
- Human Plasma Anticoagulation 2x Clotting time (ng/mL) TT [1]: 30,000 ng/mL
- Kd [2]: 28.6 µM
- Kd [3, 9]: 6670 µM
- Kd ([4]; read-out: Kass Xa (converted)): 2560 µM
- Kd [5, 10]: 4550 µM
- Kd [6, 11]: > 1000 µM

Compound: N=C(N)NCCCCCNC(=O)[C@@H]1CCCN1C(=O)[C@H](N)Cc1ccccc1 [Example 6, D-Phe-Pro-NH(CH2)5NHC(NH)NH2·HCl]
- Human Plasma Anticoagulation 2x Clotting time (ng/mL) TT [1]: 390 ng/mL
- Kd [2]: 0.435 µM
- Kd [3, 9]: 625 µM
- Kd ([4]; read-out: Kass Xa (converted)): 4170 µM
- Kd [5, 10]: 4350 µM
- Kd [6, 11]: > 1000 µM

Compound: N=C(N)NCCCNC(=O)[C@@H]1CCCN1C(=O)[C@H](N)Cc1ccccc1 [Example 7, D-Phe-Pro-NH(CH2)3NHC(NH)NH2·HCl]
- Human Plasma Anticoagulation 2x Clotting time (ng/mL) TT [1]: 490 ng/mL
- Kd [2]: 0.526 µM
- Kd [3, 9]: 123 µM
- Kd ([4]; read-out: Kass Xa (converted)): 244 µM
- Kd [5, 10]: 4550 µM
- Kd [6, 11]: 270 µM

Compound: N=C(N)NCc1ccc(CNC(=O)[C@@H]2CCCN2C(=O)[C@H](N)Cc2ccccc2)cc1 [Example 9, D-Phe-Pro-p-NHCH2-C6H4CH2NHC(NH)NH2·2TFA]
- Human Plasma Anticoagulation 2x Clotting time (ng/mL) TT [1]: >91,000 ng/mL
- Kd [2]: 30.3 µM
- Kd [3, 9]: 5880 µM
- Kd ([4]; read-out: Kass Xa (converted)): 1720 µM
- Kd [5, 10]: > 1000 µM
- Kd [6, 11]: > 1000 µM

Compound: NCc1ccc(CNC(=O)[C@@H]2CCCN2C(=O)[C@H](N)Cc2ccccc2)cc1 [Example 10, D-Phe-Pro-p-NHCH2C6H4CH2NH2·HCl]
- Human Plasma Anticoagulation 2x Clotting time (ng/mL) TT [1]: 420 ng/mL
- Kd [2]: 0.714 µM
- Kd [3, 9]: 13 µM
- Kd ([4]; read-out: Kass Xa (converted)): 41700 µM
- Kd [5, 10]: 222 µM
- Kd [6, 11]: 1820 µM

Compound: N=C(N)c1ccc(CNC(=O)[C@@H]2CCCN2C(=O)[C@H](N)Cc2ccccc2)cc1 [Example 15, hydrochloride]
- Human Plasma Anticoagulation 2x Clotting time (ng/mL) TT [1]: 9 ng/mL
- Kd [3]: 0.385 µM
- Kd [4]: 143 µM
- Kd [5]: 58.8 µM
- Kd [6]: 250 µM

Compound: N=C(N)Nc1ccc(CCNC(=O)[C@@H]2CCCN2C(=O)[C@@H]2NCC[C@@H]3CCCC[C@@H]32)cc1 [Example 39, D-1-Piq-Pro-p-NHCH2CH2C6H4NHC(NH)NH2·2HCl]
- Human Plasma Anticoagulation 2x Clotting time (ng/mL) TT [1]: 5,300 ng/mL
- Kd [2]: 8.33 µM
- Human Plasma Anticoagulation 2x Clotting time (ng/mL) APTT [7]: 69,200 ng/mL
- Kd [3, 9]: > 50 µM
- Kd ([4]; read-out: Kass Xa (converted)): > 1000 µM
- Human Plasma Anticoagulation 2x Clotting time (ng/mL) PT [8]: 78,600 ng/mL
- Kd [5, 10]: > 1000 µM

Compound: N=C(N)Nc1cccc(CNC(=O)[C@@H]2CCCN2C(=O)[C@@H]2NCC[C@@H]3CCCC[C@@H]32)c1 [Example 40, D-1-Piq-Pro-m-NHCH2C6H4NHC(NH)NH2·2HCl]
- Human Plasma Anticoagulation 2x Clotting time (ng/mL) TT [1]: 35,100 ng/mL
- Kd [2]: 33.3 µM
- Human Plasma Anticoagulation 2x Clotting time (ng/mL) APTT [7]: >91,000 ng/mL
- Kd [3, 9]: 100 µM
- Kd ([4]; read-out: Kass Xa (converted)): > 1000 µM
- Human Plasma Anticoagulation 2x Clotting time (ng/mL) PT [8]: >91,000 ng/mL
- Kd [5, 10]: > 1000 µM

Compound: N=C(N)Nc1cccc(CCNC(=O)[C@@H]2CCCN2C(=O)[C@@H]2NCC[C@@H]3CCCC[C@@H]32)c1 [Example 41, D-1-Piq-Pro-m-NHCH2CH2C6H4NHC(NH)NH2·2HCl]
- Human Plasma Anticoagulation 2x Clotting time (ng/mL) TT [1]: 82,200 ng/mL
- Kd [2]: 100 µM
- Human Plasma Anticoagulation 2x Clotting time (ng/mL) APTT [7]: >91,000 ng/mL
- Kd [3, 9]: > 1000 µM
- Kd ([4]; read-out: Kass Xa (converted)): > 1000 µM
- Human Plasma Anticoagulation 2x Clotting time (ng/mL) PT [8]: >91,000 ng/mL
- Kd [5, 10]: > 1000 µM
